Measurements published in patent publication US8314092B2, “Substituted [(5H-pyrrolo[2,1-c][1,4]benzodiazepin-11-yl)piperazin-1-yl]-2,2-dimethylpropanoic acid compounds as dual activity H1 inverse agonists/5-HT2A antagonists” (Eli Lilly and Company, priority 2011, dated 2012).
Structures can show the parent of a compound that is named as a salt.

Key:
native GABAA receptors = test: GABAA antagonism using native receptors in primary neuronal cultures (FLIPR calcium flux); assay type: cell-based, rat; details: against 10 μM GABA
Method: Activity of compounds on native GABAA receptors is evaluated by monitoring calcium fluxes using a 96 well format FLIPR® system (Fluorometric Imaging Plate Reader (FLIPR®, Molecular Devices). Briefly, cortical embryonic neurons are dissociated from E18 rat embryos and plated at optimum density into black-walled, transparent bottom poly-D-lysine coated 96-well FLIPR® plates. After loading the cells with a calcium sensitive dye (Fluo-4-AM, Molecular Devices), the cells are bathed in a solution containing low chloride (chloride replaced by gluconate). Under these conditions activation of GABAA receptors causes an efflux of chloride ions (in the direction of the chemical gradient), which results in membrane depolarization and consequently activation of voltage gated calcium channels (VGCCs). Calcium influx through VGCCs is recorded and analysed offline using the FLIPR® system. For a pharmacological validation of the assay, concentration response curves (CRC) are recorded for the standard agonist (GABA) and standard antagonist (Gabazine). […]
The antagonist effects of compounds are quantified using 10-point dose response curves by comparing the peak fluorescent responses to the agonist GABA in the presence and absence of compound. […] Antagonist effects are calculated as a percent of the assay window. […]

Dopamine D3 = Dopamine D3 (Homo sapiens, UniProt P35462); test: Dopamine D3 binding
Sequence of Dopamine D3 (P35462 whole entry): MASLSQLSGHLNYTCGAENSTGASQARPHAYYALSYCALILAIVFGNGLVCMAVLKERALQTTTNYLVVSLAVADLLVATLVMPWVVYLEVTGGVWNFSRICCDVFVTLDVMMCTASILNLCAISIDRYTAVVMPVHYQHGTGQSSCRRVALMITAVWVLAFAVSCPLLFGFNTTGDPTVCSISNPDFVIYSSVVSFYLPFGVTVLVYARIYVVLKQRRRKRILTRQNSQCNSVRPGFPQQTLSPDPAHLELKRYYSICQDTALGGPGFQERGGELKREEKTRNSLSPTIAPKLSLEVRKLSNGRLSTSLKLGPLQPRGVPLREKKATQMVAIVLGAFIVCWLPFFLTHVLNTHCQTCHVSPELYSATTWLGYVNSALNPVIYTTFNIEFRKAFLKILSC
Excerpt: (§1) Further, the compounds of the invention may be tested in binding assays and functional activity assays by well known methods for other physiologically important receptors such as, but not limited to, the hERG channel, other serotonin receptors (specifically 5-HT1A, 5-HT1B, 5-HT1D, 5-HT1E, 5-HT1F receptors, lack of agonist activity at 5-HT2B receptors, 5-HT2C, 5-HT4, 5-HTS, 5-HT6, and 5-HT7 receptors), muscarinic receptors, dopaminergic receptors (specifically D1, D2, and D3), GABAA receptors, adrenergic receptors and monoamine transporters. Certain exemplified compounds are tested at these receptors and are shown to lack significant activity.

Adrenergic alpha2A = Adrenergic alpha2A (Homo sapiens, UniProt P08913); test: Adrenergic alpha2A binding
Sequence of Adrenergic alpha2A (P08913 whole entry): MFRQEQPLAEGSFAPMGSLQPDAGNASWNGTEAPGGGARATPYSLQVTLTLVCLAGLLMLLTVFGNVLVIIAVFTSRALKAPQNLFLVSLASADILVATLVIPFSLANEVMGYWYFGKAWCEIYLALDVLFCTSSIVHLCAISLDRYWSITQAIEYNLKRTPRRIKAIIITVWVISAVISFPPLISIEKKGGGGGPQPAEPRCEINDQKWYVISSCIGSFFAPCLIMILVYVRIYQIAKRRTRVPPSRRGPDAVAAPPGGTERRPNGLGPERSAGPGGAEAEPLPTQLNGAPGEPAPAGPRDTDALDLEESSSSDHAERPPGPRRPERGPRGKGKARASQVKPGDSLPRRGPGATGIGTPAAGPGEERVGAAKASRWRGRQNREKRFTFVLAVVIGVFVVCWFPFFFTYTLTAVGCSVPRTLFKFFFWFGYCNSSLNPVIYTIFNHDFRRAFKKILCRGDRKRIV
Excerpt: as §1

H1 receptor = biological target: T1, H1 receptor (Rattus norvegicus, UniProt P31390); test: Histamine H1 receptor occupancy in vivo (doxepin tracer); details: oral gavage, 1 hour before tracer, read-out: H1 RO EC50
T1 construct: from tissue; host or cells: living rat; frontal cortex
T1 sequence (P31390 whole entry): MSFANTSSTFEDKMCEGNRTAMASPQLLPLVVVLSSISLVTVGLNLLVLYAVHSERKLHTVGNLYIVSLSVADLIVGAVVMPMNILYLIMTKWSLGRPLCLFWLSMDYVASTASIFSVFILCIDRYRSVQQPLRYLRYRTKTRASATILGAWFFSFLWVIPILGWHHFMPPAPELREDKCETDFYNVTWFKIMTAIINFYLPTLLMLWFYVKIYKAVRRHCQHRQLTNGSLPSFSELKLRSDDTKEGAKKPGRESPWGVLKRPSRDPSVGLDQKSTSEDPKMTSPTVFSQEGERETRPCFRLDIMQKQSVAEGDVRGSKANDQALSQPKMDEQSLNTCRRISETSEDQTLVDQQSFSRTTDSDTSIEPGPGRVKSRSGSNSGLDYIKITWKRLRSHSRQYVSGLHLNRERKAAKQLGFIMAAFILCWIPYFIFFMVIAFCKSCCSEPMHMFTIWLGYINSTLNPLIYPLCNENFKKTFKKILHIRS
Method: Statistical Methods: Curves for each study are fitted to a 4 parameter logistic function with the bottom fixed at 0% using JMP® version 8.0 (SAS Institute Inc, Cary N.C.) and the absolute ED50 is calculated by the software. Values are given as means, standard errors and 95% confidence intervals. […] Briefly, male Sprague-Dawley rats (Harlan Sprague-Dawley, Indianapolis, Ind.) weighing approximately 230-280 grams are given ad lib access to food and water until the beginning of the 3-hour experimental protocol. 3-[4-(8-Fluorodibenzo[b,f][1,4]oxazepin-1′-yl)piperazin-1-yl]-2,2-dimethylpropanoic acid dihydrochloride is used as a positive control and doxepin is used as a tracer. Test compounds and control are administered by oral gavage in a vehicle comprised of 20% hydroxypropyl beta-cyclodextrin. Doxepin is dissolved in sterile water (100 μg/ml), diluted to 2 μg/ml with saline, and administered in a volume of 0.5 mL/kg intravenously via the lateral tail vein to yield a tracer dose of 1 μg/kg. Rats are administered test compound, 15 mg/kg positive control, or vehicle, followed 1 hour later by an intravenous “tracer” dose of doxepin (N=4). It is at the time of tracer administration that RO is considered to be measured. 40 mins after tracer administration, rats are sacrificed by cervical dislocation. Plasma samples are collected and the frontal cortex is removed. […]

## Cc1cc2n(c1)Cc1cc(Cl)ccc1N=C2N1CCN(CC(C)(C)C(=O)O)CC1 [Example 13, 3-[4-(7-Chloro-2-methyl-5H-pyrrolo[2,1-c][1,4]benzodiazepin-11-yl)piperazin-1-yl]-2,2-dimethylpropanoic acid dihydrochloride]
Native GABAA receptors
  IC50: > 50 µM
Dopamine D3
  Ki: > 4.11 µM
Adrenergic alpha2A
  Ki: > 8.47 µM
H1 receptor
  ED50: 0.3 mg/kg
